Structures can show the parent of a compound that is named as a salt. Where two headings read alike, the source gives them in different places.
What was measured:
[1] = test system: tumor necrosis factor (α) (TNF-α); experiment: Cytokine induction in human cells: TNF-α secreted by PBMC (ORIGEN M-Series immunoassay); format: cell-based; design: key to Maximal Response (pg/mL) TNF: *: Below experimental background level; conditions: median if more than one experiment; for minimal effective concentration: lowest tested concentration inducing response over 40 pg/mL, read-out: Minimum Effective Concentration (μM) TNF; for Maximal Response (pg/mL) TNF: background-subtracted, reference-adjusted
Excerpt: (§1) An in vitro human blood cell system is used to assess cytokine induction. Activity is based on the measurement of interferon (α) and tumor necrosis factor (α) (IFN-α and TNF-α, respectively) secreted into culture media as described by Testerman et. al. in “Cytokine Induction by the Immunomodulators Imiquimod and S-27609”, Journal of Leukocyte Biology, 58, 365-372 (September, 1995).
(§2) Whole blood from healthy human donors is collected by venipuncture into vacutainer tubes or syringes containing EDTA. Peripheral blood mononuclear cells (PBMC) are separated from whole blood by density gradient centrifugation using HISTOPAQUE-1077 (Sigma, St. Louis, Mo.) or Ficoll-Paque Plus (Amersham Biosciences Piscataway, N.J.). Blood is diluted 1:1 with Dulbecco's Phosphate Buffered Saline (DPBS) or Hank's Balanced Salts Solution (HBSS). Alternately, whole blood is placed in Accuspin (Sigma) or LeucoSep (Greiner Bio-One, Inc., Longwood, Fla.) centrifuge frit tubes containing density gradient medium. The PBMC layer is collected and washed twice with DPBS or HBSS and re-suspended at 4×10^6 cells/mL in RPMI complete. The PBMC suspension is added to 96 well flat bottom sterile tissue culture plates containing an equal volume of RPMI complete media containing test compound.
(§3) The compounds are solubilized in dimethyl sulfoxide (DMSO). The DMSO concentration should not exceed a final concentration of 1% for addition to the culture wells. The compounds are generally tested at concentrations ranging from 30-0.014 μM. Controls include cell samples with media only, cell samples with DMSO only (no compound), and cell samples with reference compound.
(§4) The solution of test compound is added at 60 μM to the first well containing RPMI complete and serial 3 fold dilutions are made in the wells. The PBMC suspension is then added to the wells in an equal volume, bringing the test compound concentrations to the desired range (usually 30-0.014 μM). The final concentration of PBMC suspension is 2×10^6 cells/mL. The plates are covered with sterile plastic lids, mixed gently and then incubated for 18 to 24 hours at 37° C. in a 5% carbon dioxide atmosphere.
(§5) Following incubation the plates are centrifuged for 10 minutes at 1000 rpm (approximately 200×g) at 4° C. The cell-free culture supernatant is removed and transferred to sterile polypropylene tubes. Samples are maintained at −30 to −70° C. until analysis. The samples are analyzed for IFN-α by ELISA and for TNF-α by IGEN/BioVeris Assay.
The TNF-α concentration is determined by ORIGEN M-Series Immunoassay and read on an IGEN M-8 analyzer from BioVeris Corporation, formerly known as IGEN International, Gaithersburg, Md. The immunoassay uses a human TNF-α capture and detection antibody pair (Catalog Numbers AHC3419 and AHC3712) from Biosource International, Camarillo, Calif. Results are expressed in pg/mL.
(§6) In total, the data output of the assay consists of concentration values of TNF-α and IFN-α(y-axis) as a function of compound concentration (x-axis).
Analysis of the data has two steps. First, the greater of the mean DMSO (DMSO control wells) or the experimental background (usually 20 pg/mL for IFN-α and 40 pg/mL for TNF-α) is subtracted from each reading. If any negative values result from background subtraction, the reading is reported as “*”, and is noted as not reliably detectable. In subsequent calculations and statistics, “*”, is treated as a zero. Second, all background subtracted values are multiplied by a single adjustment ratio to decrease experiment to experiment variability. The adjustment ratio is the area of the reference compound in the new experiment divided by the expected area of the reference compound based on the past 61 experiments (unadjusted readings). […]

interferon (α) (IFN-α) = experiment: Cytokine induction in human cells: IFN-α secreted by PBMC (ELISA); format: cell-based; design: key to Maximal Response (pg/mL) IFN: *: Below experimental background level; conditions: median if more than one experiment; for minimal effective concentration: lowest tested concentration inducing response over 20 pg/mL, read-out: Minimum Effective Concentration (μM) IFN; for Maximal Response (pg/mL) IFN: background-subtracted, reference-adjusted
Excerpt: as §1, §2, §3, §4, §5
IFN-α concentration is determined with a human multi-subtype colorimetric sandwich ELISA (Catalog Number 41105) from PBL Biomedical Laboratories, Piscataway, N.J. Results are expressed in pg/mL.
as §6
Analysis of the data has two steps. First, the greater of the mean DMSO (DMSO control wells) or the experimental background (usually 20 pg/mL for IFN-α and 40 pg/mL for TNF-α) is subtracted from each reading. If any negative values result from background subtraction, the reading is reported as “*”, and is noted as not reliably detectable. In subsequent calculations and statistics, “*”, is treated as a zero. Second, all background subtracted values are multiplied by a single adjustment ratio to decrease experiment to experiment variability. The adjustment ratio is the area of the reference compound in the new experiment divided by the expected area of the reference compound based on the past 61 experiments (unadjusted readings). […] The reference compound used is 2-[4-amino-2-ethoxymethyl-6,7,8,9-tetrahydro-α,α-dimethyl-1H-imidazo[4,5-c]quinolin-1-yl]ethanol hydrate (U.S. Pat. No. 5,352,784; Example 91) and the expected area is the sum of the median dose values from the past 61 experiments.
The minimum effective concentration is calculated based on the background-subtracted, reference-adjusted results for a given experiment and compound. […]

Structure (SMILES) | melting point [°C] | minimal effective concentration ([1]; 18 to 24 hours) [µM] | minimal effective concentration ([1]; Table 3, 18 to 24 hours) [µM] | minimal effective concentration (interferon (α) (IFN-α); 18 to 24 hours) [µM] | minimal effective concentration (interferon (α) (IFN-α); Table 3, 18 to 24 hours) [µM] | Maximal Response (pg/mL) TNF ([1]; tested 30-0.014 μM) | Maximal Response (pg/mL) IFN (interferon (α) (IFN-α); tested 30-0.014 μM) | Maximal Response (pg/mL) TNF ([1]; Table 3, tested 30-0.014 μM) | Maximal Response (pg/mL) IFN (interferon (α) (IFN-α); Table 3, tested 30-0.014 μM) [pg/mL]
CS(=O)(=O)N1CCC(Cn2c(CO)nc3c(N)nc4cc(-c5cncc(CO)c5)ccc4c32)CC1 (as salt: HBr) (hydrate or solvate) [Example 44] | > 300 |  |  |  |  |  |  |  | 
CC(C)C(=O)N1CCC(Cn2c(CO)nc3c(N)nc4cc(-c5cncc(CO)c5)ccc4c32)CC1 (as salt: HBr) [Example 45] | > 300 |  |  |  |  |  |  |  | 
CCc1nc2c(N)nc3cc(-c4cccnc4)ccc3c2n1CC(C)(C)O [Analog 1, 1-(4-amino-2-ethyl-7-pyridin-3-yl-1H-imidazo[4,5-c]quinolin-1-yl)-2-methylpropan-2-ol, reference compound] |  | 0.37 | 0.37 | 0.12 | 0.12 |  |  |  | 
CCCc1nc2c(N)nc3cc(-c4cccnc4)ccc3c2n1CC(C)(C)O [Analog 2, 1-(4-amino-2-propyl-7-pyridin-3-yl-1H-imidazo[4,5-c]quinolin-1-yl)-2-methylpropan-2-ol, reference compound] |  | 0.37 | 0.37 | 0.04 | 0.04 |  |  |  | 
CCOCc1nc2c(N)nc3cc(-c4cccnc4)ccc3c2n1CC(C)(C)O [Analog 3, 1-(4-amino-2-ethoxymethyl-7-pyridin-3-yl-1H-imidazo[4,5-c]quinolin-1-yl)-2-methylpropan-2-ol, reference compound] |  | 0.12 | 0.12 | 0.04 | 0.04 |  |  |  | 
CC(C)(O)Cn1c(CCO)nc2c(N)nc3cc(-c4ccccc4)ccc3c21 [Example 2] |  | 3.33 |  | 0.37 |  | 67 pg/mL | 1274 pg/mL |  | 
CC(C)Cn1c(CCO)nc2c(N)nc3cc(-c4cccnc4)ccc3c21 [Example 3] |  | 3.33 |  | 0.37 |  | 42 pg/mL | 1180 pg/mL |  | 
CC(C)Cn1c(CCO)nc2c(N)nc3cc(-c4cncc(CO)c4)ccc3c21 [Example 4] |  | 10 |  | 0.12 |  | 349 pg/mL | 1891 pg/mL |  | 
CC(C)(O)Cn1c(CO)nc2c(N)nc3cc(-c4cccnc4)ccc3c21 [Example 8] |  | 10 | >30 | 0.37 | 1.11 | 51 pg/mL | 2886 pg/mL | * (Below experimental background level of 40/pg mL) | 2251
Cc1cccc(-c2ccc3c(c2)nc(N)c2nc(CO)n(CC(C)(C)O)c23)c1 [Example 9] |  | >30 |  | 30 |  | * | 87 pg/mL |  | 
Cc1ccc(-c2ccc3c(c2)nc(N)c2nc(CO)n(CC(C)(C)O)c23)cc1 [Example 10] |  | 0.37 |  | 0.37 |  | 7423 pg/mL | 1681 pg/mL |  | 
CC(C)(O)Cn1c(CO)nc2c(N)nc3cc(-c4cccc(O)c4)ccc3c21 [Example 13] |  | 10 |  | 0.37 |  | 352 pg/mL | 12641 pg/mL |  | 
CC(C)(O)Cn1c(CO)nc2c(N)nc3cc(-c4cncc(CO)c4)ccc3c21 [Example 33] |  | > 30 |  | 0.37 |  | * |  |  | 
CC(C)C(=O)N1CCC(Cn2c(CO)nc3c(N)nc4cc(-c5cccnc5)ccc4c32)CC1 [Example 35] |  | > 30 |  | 1.11 |  | * |  |  | 
CCCNC(=O)NCCCCn1c(CO)nc2c(N)nc3cc(-c4cccnc4)ccc3c21 [Example 39] |  | 30 |  | 0.37 |  |  |  |  | 
Nc1nc2cc(-c3cccnc3)ccc2c2c1nc(CO)n2CCCCNC(=O)NC1CCCC1 [Example 41] |  | 10 |  | 0.04 |  |  |  |  | 
CC(C)C(=O)NCCCCn1c(CO)nc2c(N)nc3cc(-c4cccnc4)ccc3c21 [Example 43] |  | 10 |  | 0.37 |  |  |  |  | 
CC(C)C(=O)N1CCC(Cn2c(CO)nc3c(N)nc4cc(-c5cncc(CO)c5)ccc4c32)CC1 [Example 45] |  | > 30 |  | > 30 |  | * | * |  | 
Nc1nc2cc(-c3cncc(CO)c3)ccc2c2c1nc(CO)n2CC1CCCCC1 [Example 49] |  | > 30 |  | 3.33 |  | * |  |  | 
Nc1nc2cc(-c3cccc(C(=O)N4CCOCC4)c3)ccc2c2c1nc(CO)n2CC1CCCCC1 [Example 50] |  | > 30 |  | 1.11 |  | * |  |  | 
